The target in the experiment is T1, human RXFP1 (Homo sapiens, UniProt Q9HBX9).
T1 sequence (Q9HBX9 1-757): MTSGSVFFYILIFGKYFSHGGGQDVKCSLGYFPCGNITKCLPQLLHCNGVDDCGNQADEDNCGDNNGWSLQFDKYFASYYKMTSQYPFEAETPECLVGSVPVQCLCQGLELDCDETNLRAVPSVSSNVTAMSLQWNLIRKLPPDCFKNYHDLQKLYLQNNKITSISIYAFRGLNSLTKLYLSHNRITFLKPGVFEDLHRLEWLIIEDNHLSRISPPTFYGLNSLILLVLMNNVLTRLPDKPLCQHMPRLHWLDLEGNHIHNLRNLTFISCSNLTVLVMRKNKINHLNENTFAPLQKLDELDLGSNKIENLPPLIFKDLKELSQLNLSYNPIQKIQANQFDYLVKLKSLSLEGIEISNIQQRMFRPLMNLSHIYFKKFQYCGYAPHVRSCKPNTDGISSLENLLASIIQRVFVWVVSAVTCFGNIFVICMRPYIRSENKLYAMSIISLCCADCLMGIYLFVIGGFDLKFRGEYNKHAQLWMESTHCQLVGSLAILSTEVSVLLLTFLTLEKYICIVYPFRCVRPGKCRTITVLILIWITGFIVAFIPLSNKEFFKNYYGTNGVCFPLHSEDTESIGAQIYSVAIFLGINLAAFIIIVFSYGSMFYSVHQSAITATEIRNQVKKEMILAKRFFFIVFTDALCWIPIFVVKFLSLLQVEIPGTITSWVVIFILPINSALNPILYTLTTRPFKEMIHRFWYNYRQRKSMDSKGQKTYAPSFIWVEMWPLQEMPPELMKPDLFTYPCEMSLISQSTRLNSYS
The experiment is described as follows: RXFP1 Hu cAMP (Test A). In kind it is cell-based. On the set-up: expressed in transfected cells; host or cells: Jump-In T-REx CHO-K1 cells (ThermoFisher), induced with 10 ng/ml doxycycline for 24 h. Particulars: RXFP1 Hu cAMP; for pEC50: read-out: Test A EC50. In outline:
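CHO-K1 (Jump-In T-REx), RXFP1 induced w/ 10 ng/ml doxycycline 24 h, cryopreserved. 0.5 mM IBMX final. cAMP by HTRF, 2 h RT, std curve.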

pEC50: −log10 of the molar value.

Usually pEC50 stands for −log10 of the EC50, conventionally taken in molar units.

Regarding `COc1cc(F)c(OC2CCC(C)(C(=O)O)CC2)cc1C(=O)NC1C2CCC(CC2)C1C(=O)NCC1(C)CCC1` (single isomer, unassigned) [Example 543, (1R,4s)-4-(2-Fluoro-4-methoxy-5-(((2S*,3R*)-3-(((1-methylcyclobutyl)methyl)carbamoyl)bicyclo[2.2.2]octan-2-yl)carbamoyl)phenoxy)-1-methylcyclohexane-1-carboxylic acid], the “Test A Sinf” value came to 88% and the pEC50 is 6.35.

As for `COc1cc(F)c(OCc2ccc(C(=O)O)cc2)cc1C(=O)N[C@@H]1[C@H]2CC[C@H](C2)[C@@H]1C(=O)Nc1cccc(S(=O)(=O)C(F)(F)F)c1` [Example 438], the “Test A Sinf” value is reported as 112% and the pEC50 was 6.59.

On to `COc1cc(C#N)c(O[C@H]2CC[C@@](C)(C(=O)O)CC2)cc1C(=O)N[C@@H]1[C@H]2CC[C@H](C2)[C@@H]1C(=O)NC1CC(F)(F)C1` [Example 623], for which the “Test A Sinf” value was determined as 104% and the pEC50 was 6.74.

Regarding `COc1cc(F)c(-c2cc(C(=O)O)cs2)cc1C(=O)N[C@H]1[C@@H](C(=O)Nc2cccc(S(=O)(=O)C(F)(F)F)c2)[C@@H]2C=C[C@H]1C2` (racemic) [Example 284, rac-5-(2-Fluoro-4-methoxy-5-(((1R,2R,3S,4S)-3-((3-((trifluoromethyl)sulfonyl)phenyl)carbamoyl)bicyclo[2.2.1]hept-5-en-2-yl)carbamoyl)phenyl)thiophene-3-carboxylic acid], the “Test A Sinf” value is listed as 85% and the negative-log EC50 (pEC50) is 6.09.

Regarding `COc1cc(C#N)c(O[C@H]2CC[C@@](C)(C(=O)O)CC2)cc1C(=O)N[C@@H]1[C@H]2CC[C@H](C2)[C@@H]1C(=O)NCC(C)(C)CO` [Example 138], the “Test A Sinf” value stood at 100% and the pEC50 is 5.92.

Turning to `COc1cc(C#N)c(O[C@H]2CC[C@@](C)(C(=O)O)CC2)cc1C(=O)N[C@@H]1[C@H]2CC[C@H](C2)[C@@H]1C(=O)NCCCOC(C)C` [Example 122], the “Test A Sinf” value is reported as 71% and the negative-log EC50 (pEC50) was 5.89.

As to `COc1cc(F)c(OC2CCC(C)(CC(=O)O)CC2)cc1C(=O)NC1C2CCC(C2)C1C(=O)NCC1(C)CCC1` [Example 476, 2-((1S,4s)-4-(2-Fluoro-4-methoxy-5-(((1S,2R,3S,4R)-3-(((1-methylcyclobutyl)methyl)carbamoyl)bicyclo[2.2.1]heptan-2-yl)carbamoyl)phenoxy)-1-methylcyclohexyl)acetic acid], the “Test A Sinf” value is given as 81% and the pEC50 is 6.52.

`COc1cc(F)c(O[C@H]2CC[C@](CC#N)(C(=O)O)CC2)cc1C(=O)N[C@@H]1[C@H]2CC[C@H](C2)[C@@H]1C(=O)NCC1(C)CCC1` [Example 423, (1R,4r)-1-(Cyanomethyl)-4-(2-fluoro-4-methoxy-5-(((1S,2R,3S,4R)-3-(((1-methylcyclobutyl)methyl)carbamoyl)bicyclo[2.2.1]heptan-2-yl)carbamoyl)phenoxy)cyclohexane-1-carboxylic acid]: the “Test A Sinf” value is reported as 89%.

As for `COc1cc(C#N)c(O[C@H]2CC[C@@](C)(C(=O)O)CC2)cc1C(=O)Nc1cc(Cl)ccc1C(=O)NC[C@H]1C[C@@H](C)C1` [Example 159], the “Test A Sinf” value is listed as 125% and the pEC50 was 7.11.

On to `COc1cc(C)c(O[C@H]2CC[C@@](C)(C(=O)O)CC2)cc1C(=O)N[C@@H]1[C@H]2CC[C@H](C2)[C@@H]1C(=O)NC12CC(F)(C1)C2` [Example 382], for which the “Test A Sinf” value is reported as 90% and the pEC50 was 6.89.

As for “(1R,4s)-4-(2-Fluoro-4-methoxy-5-(((1S*,2R*)-2-(neopentylcarbamoyl)cyclobutyl)carbamoyl)phenoxy)-1-methylcyclohexane-1-carboxylic acid [Example 569]”, the “Test A Sinf” value came out at 97%.

In the case of `COc1cc(C#N)c(O[C@H]2CC[C@@](C)(C(=O)O)CC2)cc1C(=O)N[C@@H]1[C@H]2CC[C@H](C2)[C@@H]1C(=O)N[C@@H](C)C(C)C` [Example 127], the “Test A Sinf” value was found to be 71% and the pEC50 is 6.00.

For the origin of these results see US11667602B2, “Compounds and their use” (AstraZeneca AB, priority 2020, dated 2023).
